In brackets after ≈: the same amount, converted by molar mass.
Tested on: Escherichia coli
Test: In vitro antimicrobial activity against Escherichia coli TEM
Type: functional
Settings: not given

Point of comparison: `CC(C)(O/N=C(\C(=O)N[C@@H]1C(=O)N2C(C(=O)[O-])=C(C[n+]3ccccc3)CS[C@H]12)c1csc(N)n1)C(=O)O` [CEFTAZIDIME], MIC 0.195 µg/mL (≈ 0.357 µM). Against it:
- CO/N=C(/C(=O)N[C@@H]1C(=O)N2C(C(=O)[O-])=C(C[n+]3cccc(-c4cc(C(N)=O)nn4C)c3)CS[C@H]12)c1csc(N)n1 — the same, 0.195 µg/mL (≈ 0.326 µM)

Tested on: Pseudomonas aeruginosa
Test: In vitro antimicrobial activity against Pseudomonas aeruginosa 1592 E
Type: functional
Settings: not given

Point of comparison: `CC(C)(O/N=C(\C(=O)N[C@@H]1C(=O)N2C(C(=O)[O-])=C(C[n+]3ccccc3)CS[C@H]12)c1csc(N)n1)C(=O)O` [CEFTAZIDIME], MIC 1.56 µg/mL (≈ 2.86 µM). Against it:
- CO/N=C(/C(=O)N[C@@H]1C(=O)N2C(C(=O)[O-])=C(C[n+]3cccc(-c4cc(C(N)=O)nn4C)c3)CS[C@H]12)c1csc(N)n1 — 8-fold higher, 12.5 µg/mL (≈ 20.9 µM)

Tested on: Enterobacter cloacae
Test: In vitro antimicrobial activity against Enterobacter cloacae P99
Type: functional
Settings: not given

Point of comparison: `CO/N=C(/C(=O)N[C@@H]1C(=O)N2C(C(=O)[O-])=C(C[n+]3cccc(-c4cc(C(N)=O)nn4C)c3)CS[C@H]12)c1csc(N)n1`, MIC 25 µg/mL (≈ 41.8 µM). Against it:
- CC(C)(O/N=C(\C(=O)N[C@@H]1C(=O)N2C(C(=O)[O-])=C(C[n+]3ccccc3)CS[C@H]12)c1csc(N)n1)C(=O)O [CEFTAZIDIME] — higher, > 100 µg/mL

Tested on: Staphylococcus aureus
Test: In vitro antimicrobial activity against Methicillin resistant Staphylococcus aureus (MRSA)
Type: functional
Settings: not given

Point of comparison: `CO/N=C(/C(=O)N[C@@H]1C(=O)N2C(C(=O)[O-])=C(C[n+]3cccc(-c4cc(C(N)=O)nn4C)c3)CS[C@H]12)c1csc(N)n1`, MIC 100 µg/mL (≈ 167 µM). Against it:
- CC(C)(O/N=C(\C(=O)N[C@@H]1C(=O)N2C(C(=O)[O-])=C(C[n+]3ccccc3)CS[C@H]12)c1csc(N)n1)C(=O)O [CEFTAZIDIME] — higher, > 100 µg/mL

Tested on: Pseudomonas aeruginosa
Test: In vitro antimicrobial activity against Pseudomonas aeruginosa 9027
Type: functional
Settings: not given

Point of comparison: `CO/N=C(/C(=O)N[C@@H]1C(=O)N2C(C(=O)[O-])=C(C[n+]3cccc(-c4cc(C(N)=O)nn4C)c3)CS[C@H]12)c1csc(N)n1`, MIC 25 µg/mL (≈ 41.8 µM). Against it:
- CC(C)(O/N=C(\C(=O)N[C@@H]1C(=O)N2C(C(=O)[O-])=C(C[n+]3ccccc3)CS[C@H]12)c1csc(N)n1)C(=O)O [CEFTAZIDIME] — 8-fold lower, 3.12 µg/mL (≈ 5.72 µM)

Tested on: Pseudomonas aeruginosa
Test: In vitro antimicrobial activity against Pseudomonas aeruginosa 1771
Type: functional
Settings: not given

Point of comparison: `CC(C)(O/N=C(\C(=O)N[C@@H]1C(=O)N2C(C(=O)[O-])=C(C[n+]3ccccc3)CS[C@H]12)c1csc(N)n1)C(=O)O` [CEFTAZIDIME], MIC 0.781 µg/mL (≈ 1.43 µM). Against it:
- CO/N=C(/C(=O)N[C@@H]1C(=O)N2C(C(=O)[O-])=C(C[n+]3cccc(-c4cc(C(N)=O)nn4C)c3)CS[C@H]12)c1csc(N)n1 — 4-fold higher, 3.12 µg/mL (≈ 5.23 µM)

Tested on: Staphylococcus aureus
Test: In vitro antimicrobial activity against Staphylococcus aureus 503
Type: functional
Settings: not given

Point of comparison: `CO/N=C(/C(=O)N[C@@H]1C(=O)N2C(C(=O)[O-])=C(C[n+]3cccc(-c4cc(C(N)=O)nn4C)c3)CS[C@H]12)c1csc(N)n1`, MIC 0.391 µg/mL (≈ 0.654 µM). Against it:
- CC(C)(O/N=C(\C(=O)N[C@@H]1C(=O)N2C(C(=O)[O-])=C(C[n+]3ccccc3)CS[C@H]12)c1csc(N)n1)C(=O)O [CEFTAZIDIME] — 8-fold higher, 3.12 µg/mL (≈ 5.72 µM)

Tested on: Pseudomonas aeruginosa
Test: In vitro antimicrobial activity against Pseudomonas aeruginosa 1771 M
Type: functional
Settings: not given

Point of comparison: `CO/N=C(/C(=O)N[C@@H]1C(=O)N2C(C(=O)[O-])=C(C[n+]3cccc(-c4cc(C(N)=O)nn4C)c3)CS[C@H]12)c1csc(N)n1`, MIC 0.391 µg/mL (≈ 0.654 µM). Against it:
- CC(C)(O/N=C(\C(=O)N[C@@H]1C(=O)N2C(C(=O)[O-])=C(C[n+]3ccccc3)CS[C@H]12)c1csc(N)n1)C(=O)O [CEFTAZIDIME] — 2-fold lower, 0.195 µg/mL (≈ 0.357 µM)

Tested on: Streptococcus pyogenes
Test: In vitro antimicrobial activity against Streptococcus pyogenes 77A
Type: functional
Settings: not given

Point of comparison: `CO/N=C(/C(=O)N[C@@H]1C(=O)N2C(C(=O)[O-])=C(C[n+]3cccc(-c4cc(C(N)=O)nn4C)c3)CS[C@H]12)c1csc(N)n1`, MIC 0.013 µg/mL (≈ 0.0218 µM). Against it:
- CC(C)(O/N=C(\C(=O)N[C@@H]1C(=O)N2C(C(=O)[O-])=C(C[n+]3ccccc3)CS[C@H]12)c1csc(N)n1)C(=O)O [CEFTAZIDIME] — 3.8-fold higher, 0.049 µg/mL (≈ 0.0896 µM)

Tested on: Staphylococcus aureus
Test: In vitro antimicrobial activity against Staphylococcus aureus 285
Type: functional
Settings: not given

Point of comparison: `CO/N=C(/C(=O)N[C@@H]1C(=O)N2C(C(=O)[O-])=C(C[n+]3cccc(-c4cc(C(N)=O)nn4C)c3)CS[C@H]12)c1csc(N)n1`, MIC 3.12 µg/mL (≈ 5.23 µM). Against it:
- CC(C)(O/N=C(\C(=O)N[C@@H]1C(=O)N2C(C(=O)[O-])=C(C[n+]3ccccc3)CS[C@H]12)c1csc(N)n1)C(=O)O [CEFTAZIDIME] — 4-fold higher, 12.5 µg/mL (≈ 22.9 µM)

Tested on: Streptococcus pyogenes
Test: In vitro antimicrobial activity against Streptococcus pyogenes A 308
Type: functional
Settings: not given

Point of comparison: `CO/N=C(/C(=O)N[C@@H]1C(=O)N2C(C(=O)[O-])=C(C[n+]3cccc(-c4cc(C(N)=O)nn4C)c3)CS[C@H]12)c1csc(N)n1`, MIC 0.025 µg/mL (≈ 0.0418 µM). Against it:
- CC(C)(O/N=C(\C(=O)N[C@@H]1C(=O)N2C(C(=O)[O-])=C(C[n+]3ccccc3)CS[C@H]12)c1csc(N)n1)C(=O)O [CEFTAZIDIME] — 3.9-fold higher, 0.098 µg/mL (≈ 0.179 µM)

Tested on: Escherichia coli
Test: In vitro antimicrobial activity against Escherichia coli DC 0
Type: functional
Settings: not given

Point of comparison: `CC(C)(O/N=C(\C(=O)N[C@@H]1C(=O)N2C(C(=O)[O-])=C(C[n+]3ccccc3)CS[C@H]12)c1csc(N)n1)C(=O)O` [CEFTAZIDIME], MIC 0.098 µg/mL (≈ 0.179 µM). Against it:
- CO/N=C(/C(=O)N[C@@H]1C(=O)N2C(C(=O)[O-])=C(C[n+]3cccc(-c4cc(C(N)=O)nn4C)c3)CS[C@H]12)c1csc(N)n1 — 2-fold lower, 0.049 µg/mL (≈ 0.082 µM)

Tested on: Escherichia coli
Test: In vitro antimicrobial activity against Escherichia coli 1507E
Type: functional
Settings: not given

Point of comparison: `CC(C)(O/N=C(\C(=O)N[C@@H]1C(=O)N2C(C(=O)[O-])=C(C[n+]3ccccc3)CS[C@H]12)c1csc(N)n1)C(=O)O` [CEFTAZIDIME], MIC 0.195 µg/mL (≈ 0.357 µM). Against it:
- CO/N=C(/C(=O)N[C@@H]1C(=O)N2C(C(=O)[O-])=C(C[n+]3cccc(-c4cc(C(N)=O)nn4C)c3)CS[C@H]12)c1csc(N)n1 — 2-fold lower, 0.098 µg/mL (≈ 0.164 µM)

Tested on: Escherichia coli
Test: In vitro antimicrobial activity against Escherichia coli DC 2
Type: functional
Settings: not given

Point of comparison: `CO/N=C(/C(=O)N[C@@H]1C(=O)N2C(C(=O)[O-])=C(C[n+]3cccc(-c4cc(C(N)=O)nn4C)c3)CS[C@H]12)c1csc(N)n1`, MIC 0.025 µg/mL (≈ 0.0418 µM). Against it:
- CC(C)(O/N=C(\C(=O)N[C@@H]1C(=O)N2C(C(=O)[O-])=C(C[n+]3ccccc3)CS[C@H]12)c1csc(N)n1)C(=O)O [CEFTAZIDIME] — 3.9-fold higher, 0.098 µg/mL (≈ 0.179 µM)

Tested on: Escherichia coli
Test: In vitro antimicrobial activity against Escherichia coli 055
Type: functional
Settings: not given

Point of comparison: `CC(C)(O/N=C(\C(=O)N[C@@H]1C(=O)N2C(C(=O)[O-])=C(C[n+]3ccccc3)CS[C@H]12)c1csc(N)n1)C(=O)O` [CEFTAZIDIME], MIC 0.098 µg/mL (≈ 0.179 µM). Against it:
- CO/N=C(/C(=O)N[C@@H]1C(=O)N2C(C(=O)[O-])=C(C[n+]3cccc(-c4cc(C(N)=O)nn4C)c3)CS[C@H]12)c1csc(N)n1 — 2-fold lower, 0.049 µg/mL (≈ 0.082 µM)

Tested on: Klebsiella aerogenes
Test: In vitro antimicrobial activity against Klebsiella aerogenes 1522 E
Type: functional
Settings: not given

Point of comparison: `CC(C)(O/N=C(\C(=O)N[C@@H]1C(=O)N2C(C(=O)[O-])=C(C[n+]3ccccc3)CS[C@H]12)c1csc(N)n1)C(=O)O` [CEFTAZIDIME], MIC 0.098 µg/mL (≈ 0.179 µM). Against it:
- CO/N=C(/C(=O)N[C@@H]1C(=O)N2C(C(=O)[O-])=C(C[n+]3cccc(-c4cc(C(N)=O)nn4C)c3)CS[C@H]12)c1csc(N)n1 — 2-fold lower, 0.049 µg/mL (≈ 0.082 µM)

Tested on: Streptococcus pyogenes
Test: In vitro antimicrobial activity against Streptococcus pyogenes SG 511
Type: functional
Settings: not given

Point of comparison: `CO/N=C(/C(=O)N[C@@H]1C(=O)N2C(C(=O)[O-])=C(C[n+]3cccc(-c4cc(C(N)=O)nn4C)c3)CS[C@H]12)c1csc(N)n1`, MIC 1.56 µg/mL (≈ 2.62 µM). Against it:
- CC(C)(O/N=C(\C(=O)N[C@@H]1C(=O)N2C(C(=O)[O-])=C(C[n+]3ccccc3)CS[C@H]12)c1csc(N)n1)C(=O)O [CEFTAZIDIME] — 8-fold higher, 12.5 µg/mL (≈ 22.9 µM)

Tested on: Salmonella typhimurium
Test: In vitro antimicrobial activity against Salmonella Typhimurium
Type: functional, Salmonella enterica subsp. enterica serovar Typhimurium
Settings: Salmonella enterica

Point of comparison: `CO/N=C(/C(=O)N[C@@H]1C(=O)N2C(C(=O)[O-])=C(C[n+]3cccc(-c4cc(C(N)=O)nn4C)c3)CS[C@H]12)c1csc(N)n1`, MIC 0.098 µg/mL (≈ 0.164 µM). Against it:
- CC(C)(O/N=C(\C(=O)N[C@@H]1C(=O)N2C(C(=O)[O-])=C(C[n+]3ccccc3)CS[C@H]12)c1csc(N)n1)C(=O)O [CEFTAZIDIME] — 2-fold higher, 0.195 µg/mL (≈ 0.357 µM)

Tested on: Enterococcus faecium
Test: In vitro antimicrobial activity against Streptococcus faecium MD 8b
Type: functional
Settings: not given

Point of comparison: `CO/N=C(/C(=O)N[C@@H]1C(=O)N2C(C(=O)[O-])=C(C[n+]3cccc(-c4cc(C(N)=O)nn4C)c3)CS[C@H]12)c1csc(N)n1`, MIC 3.12 µg/mL (≈ 5.23 µM). Against it:
- CC(C)(O/N=C(\C(=O)N[C@@H]1C(=O)N2C(C(=O)[O-])=C(C[n+]3ccccc3)CS[C@H]12)c1csc(N)n1)C(=O)O [CEFTAZIDIME] — higher, > 100 µg/mL

Tested on: Klebsiella oxytoca
Test: In vitro antimicrobial activity against Klebsiella oxytoca 1082
Type: functional
Settings: not given

Point of comparison: `CC(C)(O/N=C(\C(=O)N[C@@H]1C(=O)N2C(C(=O)[O-])=C(C[n+]3ccccc3)CS[C@H]12)c1csc(N)n1)C(=O)O` [CEFTAZIDIME], MIC 0.391 µg/mL (≈ 0.715 µM). Against it:
- CO/N=C(/C(=O)N[C@@H]1C(=O)N2C(C(=O)[O-])=C(C[n+]3cccc(-c4cc(C(N)=O)nn4C)c3)CS[C@H]12)c1csc(N)n1 — 8-fold higher, 3.12 µg/mL (≈ 5.23 µM)

Tested on: Enterobacter cloacae
Test: In vitro antimicrobial activity against Enterobacter 1321 E
Type: functional
Settings: not given

Point of comparison: `CO/N=C(/C(=O)N[C@@H]1C(=O)N2C(C(=O)[O-])=C(C[n+]3cccc(-c4cc(C(N)=O)nn4C)c3)CS[C@H]12)c1csc(N)n1`, MIC 0.025 µg/mL (≈ 0.0418 µM). Against it:
- CC(C)(O/N=C(\C(=O)N[C@@H]1C(=O)N2C(C(=O)[O-])=C(C[n+]3ccccc3)CS[C@H]12)c1csc(N)n1)C(=O)O [CEFTAZIDIME] — the same, 0.025 µg/mL (≈ 0.0457 µM)
